The target of this experiment is Ras-related C3 botulinum toxin substrate 1 (Homo sapiens) (UniProt P63000). Nature of the experiment: activated mutant Rac1 GTP binding inhibitors, SAR follow-up, biochemical, oxadiazole analogs, multiplex bead flow cytometry (AID 2051). The following applies: Bead-based flow cytometry, Bodipy-FL-GTP binding to GST-Rac1; for Ki: measured here: Ki calculated from EC50.

What is called EC50 is the concentration needed to bring the measured effect to its halfway point. By Ki is commonly meant the equilibrium dissociation constant of an inhibitor or competing ligand from its target.

Each structure is given as a SMILES string. Activity calls are given as the source filed them.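 The calls were made as follows: active = EC50 of 30 microM or lower and a span of response of at least a set limit; inactive = the rest.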

Take `COc1ccc(-c2noc(CCC(=O)N3CCN(c4ccc(Cl)cc4)CC3)n2)cc1`: the EC50 result is “inactive”.
For the compound `Cc1ccc(C)c(N2CCN(C(=O)CCc3nc(-c4ccc(Cl)cc4)no3)CC2)c1`, the EC50 was 2250 nM and the Ki is 200 nM.
The corresponding values for `COc1ccc(-c2noc(CCC(=O)N3CCN(c4ccccc4F)CC3)n2)cc1` are 2510 nM and 230 nM.
Turning to `COc1ccc(-c2noc(CC(=O)N3CCN(c4cc(C)ccc4C)CC3)n2)cc1`, the EC50 result was “inactive” and the Ki was 1320 nM.
The corresponding values for `Cc1ccc(C)c(N2CCN(C(=O)CCc3nc(-c4cccc(Br)c4)no3)CC2)c1` are 2140 nM and 190 nM.
The corresponding values for `COc1ccc(-c2noc(CCC(=O)N3CCN(c4cccc(C)c4C)CC3)n2)cc1` are 1540 nM and 140 nM.
The matching figures for `COc1ccc(-c2cccc(CCC(=O)N3CCN(c4cc(C)ccc4C)CC3)c2)cc1`: “inactive” and 910 nM.
In the case of `Cc1ccc(C)c(N2CCN(C(=O)CCc3nc(-c4ccccc4Cl)no3)CC2)c1`, the EC50 was 1370 nM and the inhibition constant (Ki) was 120 nM.
With `COc1ccc(-c2noc(CCC(=O)N3CCN(c4ccccc4C)CC3)n2)cc1`, the EC50 is 1480 nM and the Ki is 130 nM.
As to `Cc1ccc(C)c(N2CCN(C(=O)CCc3nc(-c4ccc(Br)cc4)no3)CC2)c1`, the EC50 is 3020 nM and the Ki was 270 nM.
For `COc1ccc(-c2noc(CCCCC(=O)N3CCN(c4cc(C)ccc4C)CC3)n2)cc1`, the EC50 entry was “inactive” and the inhibition constant Ki was 1060 nM.
In the case of `COc1ccc(-c2noc(CCC(=O)N3CCN(c4cccc(C(F)(F)F)c4)CC3)n2)cc1`, the EC50 result is “inactive” and the Ki is 830 nM.
Turning to `COc1ccc(-c2noc(CCC(=O)N3CCN(c4cccc(OC)c4)CC3)n2)cc1`, the EC50 result is “inactive” and the Ki is 890 nM.
In the case of `COc1ccc(-c2noc(CCC(=O)N3CCN(c4ccccc4)CC3)n2)cc1`, the EC50 result is “inactive” and the Ki is 160 nM.
Regarding `COc1ccc(-c2noc(CCC(=O)N3CCN(c4cccc(F)c4)CC3)n2)cc1`, the EC50 entry is “inactive”.
`COc1ccc(-c2noc(CCC(=O)N3CCN(c4ccc(C)cc4)CC3)n2)cc1`: the EC50 result was “inactive” and the Ki was 140 nM.
Consider `COc1ccc(-c2noc(CCC(=O)N3CCN(c4ccccc4C(F)(F)F)CC3)n2)cc1`, for which the EC50 is 2010 nM and the Ki is 180 nM.
Regarding `COc1ccc(-c2ccc(CCC(=O)N3CCN(c4cc(C)ccc4C)CC3)s2)cc1`, the EC50 result was “inactive”.
Take `COc1ccc(-c2noc(CCCC(=O)N3CCN(c4cc(C)ccc4C)CC3)n2)cc1`: the EC50 is 8220 nM and the inhibitory constant (Ki) is 750 nM.
On to `Cc1ccc(C)c(N2CCN(C(=O)CCc3nc(-c4cccc(C(F)(F)F)c4)no3)CC2)c1`, for which the EC50 is 3380 nM and the Ki was 310 nM.
As for `COc1ccccc1-c1noc(CCC(=O)N2CCN(c3cc(C)ccc3C)CC2)n1`, the EC50 result was “inactive” and the Ki is 480 nM.
Take `COc1ccc(-c2noc(CCC(=O)N3CCN(c4ccccc4Cl)CC3)n2)cc1`: the EC50 is 4940 nM and the inhibitory constant (Ki) is 450 nM.
Turning to `COc1cccc(-c2noc(CCC(=O)N3CCN(c4cc(C)ccc4C)CC3)n2)c1`, the EC50 was 5780 nM and the Ki is 530 nM.
The corresponding values for `COc1ccc(-c2noc(CCC(=O)N3CCN(c4ccc(Br)cc4)CC3)n2)cc1` are “inactive” and 300 nM.
The corresponding values for `Cc1ccc(C)c(N2CCN(C(=O)CCc3nc(-c4ccccc4C(F)(F)F)no3)CC2)c1` are 2700 nM and 250 nM.
Consider `Cc1ccc(C)c(N2CCN(C(=O)CCc3nc(-c4cccc(F)c4)no3)CC2)c1`, for which the EC50 is 2550 nM and the Ki is 230 nM.
Regarding `Cc1ccc(C)c(N2CCN(C(=O)CCc3nc(-c4ccc(C(F)(F)F)cc4)no3)CC2)c1`, the EC50 was 1950 nM and the Ki is 180 nM.
In the case of `COc1ccc(-c2noc(CCC(=O)N3CCN(c4ccc(OC)cc4)CC3)n2)cc1`, the EC50 entry was “inactive” and the Ki was 60 nM.
The matching figures for `Cc1ccc(-c2noc(CCC(=O)N3CCN(c4cc(C)ccc4C)CC3)n2)cc1`: 3320 nM and 300 nM.
In the case of `Cc1ccc(C)c(N2CCN(C(=O)CCc3nc(-c4ccccc4)no3)CC2)c1`, the EC50 was 2790 nM and the Ki was 250 nM.
Take `Cc1ccc(C)c(N2CCN(C(=O)CCc3nc(-c4ccccc4F)no3)CC2)c1`: the EC50 was 2250 nM and the Ki is 200 nM.
Turning to `COc1ccc(-c2cc(CCC(=O)N3CCN(c4cc(C)ccc4C)CC3)on2)cc1`, the EC50 result is “inactive” and the inhibition constant (Ki) was 190 nM.
For the compound `Cc1ccc(C)c(N2CCN(C(=O)CCc3nc(-c4ccccc4Br)no3)CC2)c1`, the EC50 is 2150 nM and the Ki was 200 nM.
For the compound `Cc1ccc(C)c(N2CCN(C(=O)CCc3nc(-c4ccc(F)cc4)no3)CC2)c1`, the EC50 is 1370 nM and the Ki was 120 nM.
On to `COc1ccc(-c2noc(CCC(=O)N3CCN(c4cccc(Br)c4)CC3)n2)cc1`, for which the concentration for a half-maximal effect (EC50) is 20600 nM and the Ki is 1870 nM.
Turning to `COc1ccc(-c2coc(CCC(=O)N3CCN(c4cc(C)ccc4C)CC3)n2)cc1`, the EC50 was 2840 nM and the inhibition constant Ki was 260 nM.
As to `COc1ccc(-c2noc(CCC(=O)N3CCC(c4cc(C)ccc4C)CC3)n2)cc1`, the EC50 entry is “inactive” and the Ki was 230 nM.
With `Cc1cccc(-c2noc(CCC(=O)N3CCN(c4cc(C)ccc4C)CC3)n2)c1`, the EC50 was 1920 nM and the inhibitory constant (Ki) is 170 nM.
The corresponding values for `COc1ccc(-c2ccc(CCC(=O)N3CCN(c4cc(C)ccc4C)CC3)[nH]2)cc1` are “inactive” and 480 nM.
In the case of `COc1ccc(-c2cc(CCC(=O)N3CCN(c4cc(C)ccc4C)CC3)[nH]n2)cc1`, the EC50 entry was “inactive”.
For the compound `COc1ccc(-c2noc(CCC(=O)N3CCN(c4ccccc4Br)CC3)n2)cc1`, the EC50 was 2240 nM and the Ki was 200 nM.
`Cc1ccc(C)c(N2CCN(C(=O)CCc3nc(-c4ccccc4C)no3)CC2)c1`: the EC50 is 2010 nM and the inhibitory constant (Ki) is 180 nM.
Consider `Cc1ccc(C)c(N2CCN(C(=O)CCc3nc(-c4cccc(Cl)c4)no3)CC2)c1`, for which the EC50 was 5120 nM and the Ki was 470 nM.
For `COc1ccc(-c2noc(CCC(=O)N3CCN(c4ccc(C(F)(F)F)cc4)CC3)n2)cc1`, the EC50 entry is “inactive”.
On to `COc1ccc(-c2ccc(CCC(=O)N3CCN(c4cc(C)ccc4C)CC3)o2)cc1`, for which the EC50 result was “inactive”.
With `Cc1ccc(C)c(N2CCN(C(=O)CCc3nc(-c4ccc(N(C)C)cc4)no3)CC2)c1`, the concentration for a half-maximal effect (EC50) was 4100 nM and the inhibitory constant (Ki) was 370 nM.
On to `COc1ccc(-c2noc(CCC(=O)N3CCN(c4ccc(F)cc4)CC3)n2)cc1`, for which the EC50 entry was “inactive” and the Ki was 80 nM.
For `COc1ccc(-c2noc(CCC(=O)N3CCN(c4cc(C)ccc4C)CC3)n2)cc1`, the EC50 was 5900 nM and the Ki is 540 nM.
For the compound `COc1ccc(-c2noc(CCC(=O)N3CCN(c4cccc(Cl)c4)CC3)n2)cc1`, the EC50 is 7340 nM and the Ki is 670 nM.
Take `COc1ccc(-c2noc(CCC(=O)N3CCN(c4cccc(C)c4)CC3)n2)cc1`: the EC50 result is “inactive”.
Regarding `COc1ccc(-c2noc(CCC(=O)N3CCN(c4ccccc4OC)CC3)n2)cc1`, the EC50 is 3800 nM and the Ki is 350 nM.

Source of the values: PubChem BioAssay AID2051 (NMMLSC, 2009).
